Assay results taken from PubChem BioAssay AID328 (DTP/NCI, 2004).
Several values for one entry are separate records, joined by “and”; a condition that tells them apart may be missing. Equal entries are not always repeated. Toxic doses and inconclusive results are not listed. Rule for the calls: active = survival T/C of 150% or more; inactive = T/C below 125% in these data.

Test system: BDF1 mice, P388 leukemia ip, median survival T/C
Experiment: NCI In Vivo Anticancer Drug Screen. Data for tumor model P388 Leukemia (intraperitoneal) in B6D2F1 (BDF1) mice
Settings: endpoint: median survival time, higher = longer survival
In short: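 Mice carrying the transplantable tumour receive compound or vehicle. Survival is followed in each arm, and the treated measure is divided by the vehicle measure.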

[1] = dose: 6.25 mg/kg/injection, schedule: Q01DX009 (ip), vehicle: saline
[2] = dose: 50.0 mg/kg/injection, schedule: Q01DX009 (ip), vehicle: saline
[3] = dose: 50.0 mg/kg/injection, schedule: Q01DX009 (ip), vehicle: saline with Tween-80
[4] = dose: 100.0 mg/kg/injection, schedule: Q01DX009 (ip), vehicle: saline with Tween-80
[5] = dose: 100.0 mg/kg/injection, schedule: Q01DX009 (ip), vehicle: saline
[6] = dose: 100.0 mg/kg/injection, schedule: Q04DX003 (ip), vehicle: saline with Tween-80
[7] = dose: 100.0 mg/kg/injection, schedule: Q04DX003 (ip), vehicle: saline
[8] = dose: 200.0 mg/kg/injection, schedule: Q04DX003 (ip), vehicle: saline with Tween-80
[9] = dose: 200.0 mg/kg/injection, schedule: Q04DX003 (ip), vehicle: saline
[10] = dose: 400.0 mg/kg/injection, schedule: Q04DX003 (ip), vehicle: saline with Tween-80
[11] = dose: 100.0 mg/kg/injection, schedule: Q01DX009 (ip), vehicle: Klucel (hydroxypropylcellulose) (HPC)
[12] = dose: 100.0 mg/kg/injection, schedule: Q04DX003 (ip), vehicle: Klucel (hydroxypropylcellulose) (HPC)
[13] = dose: 200.0 mg/kg/injection, schedule: Q01DX009 (ip), vehicle: Klucel (hydroxypropylcellulose) (HPC)
[14] = dose: 200.0 mg/kg/injection, schedule: Q04DX003 (ip), vehicle: Klucel (hydroxypropylcellulose) (HPC)
[15] = dose: 400.0 mg/kg/injection, schedule: Q04DX003 (ip), vehicle: Klucel (hydroxypropylcellulose) (HPC)
[16] = dose: 6.25 mg/kg/injection, schedule: Q01DX009 (ip), vehicle: saline with Tween-80
[17] = dose: 12.5 mg/kg/injection, schedule: Q01DX009 (ip), vehicle: saline with Tween-80
[18] = dose: 25.0 mg/kg/injection, schedule: Q01DX009 (ip), vehicle: saline with Tween-80
[19] = dose: 200.0 mg/kg/injection, schedule: Q01DX009 (ip), vehicle: saline with Tween-80
[20] = dose: 400.0 mg/kg/injection, schedule: Q01DX009 (ip), vehicle: saline with Tween-80
[21] = dose: 400.0 mg/kg/injection, schedule: Q01DX009 (ip), vehicle: Klucel (hydroxypropylcellulose) (HPC)

Measured: T/C

CC1C[N-]CC(C)C1.CC1C[N-]CC(C)C1.[Cl][Pt+2]([Cl])([Cl])[Cl] (configuration not stated)
inactive: dose: 1.56 mg/kg/injection, schedule: Q01DX009 (ip), vehicle: saline 95 % of control | dose: 3.12 mg/kg/injection, schedule: Q01DX009 (ip), vehicle: saline 114 % of control | [1] 93 % of control | dose: 12.5 mg/kg/injection, schedule: Q01DX009 (ip), vehicle: saline 114 % of control | [2] 107 % of control

Ic1ccccc1C[N+]12CN3CN(CN(C3)C1)C2
inactive: [3] 108 % of control | dose: 60.0 mg/kg/injection, schedule: Q01DX009 (ip), vehicle: alcohol 95 % of control | dose: 85.0 mg/kg/injection, schedule: Q01DX009 (ip), vehicle: alcohol 95 % of control | [4] 120 % of control | [5] 115 % of control | [6] 110 % of control | [7] 118 % of control | dose: 132.0 mg/kg/injection, schedule: Q01DX009 (ip), vehicle: saline with Tween-80 111 % of control | [8] 110 % of control | [9] 113 % of control | dose: 300.0 mg/kg/injection, schedule: Q01DX009 (ip), vehicle: saline with Tween-80 100 % of control and 123 % of control | [10] 95 % of control | dose: 400.0 mg/kg/injection, schedule: Q04DX003 (ip), vehicle: saline 113 % of control

CCCCCC(C(C)=O)(C1=NC(C)(C)CC(C)O1)c1ccccc1 (configuration not stated)
inactive: [7] 110 % of control | [9] 95 % of control

O=C(O)/C=C/c1cc2c(cc1[N+](=O)[O-])OCO2
inactive: [11] 88 % of control | [12] 91 % of control | [13] 96 % of control | [14] 95 % of control | [15] 87 % of control

COc1ccc(CSc2ncnc3nc[nH]c23)cc1
inactive: [4] 95 % of control | [6] 100 % of control | [8] 100 % of control | [10] 87 % of control

CN(C)C(=O)c1cccc(NCc2ccc3nc(N)nc(N)c3c2)c1
inactive: dose: 3.12 mg/kg/injection, schedule: Q01DX009 (ip), vehicle: saline with Tween-80 108 % of control | [16] 99 % of control | [17] 106 % of control | [18] 99 % of control | [3] 95 % of control and 108 % of control | dose: 50.0 mg/kg/injection, schedule: Q04DX003 (ip), vehicle: saline with Tween-80 100 % of control | [4] 91 % of control | [6] 100 % of control | [19] 101 % of control | [8] 104 % of control | [20] 94 % of control | [10] 102 % of control

CCCCCCCCCCCC(=O)CCC
inactive: dose: 100.0 mg/kg/injection, schedule: Q04DX003 (ip), vehicle: other 100 % of control | dose: 200.0 mg/kg/injection, schedule: Q04DX003 (ip), vehicle: other 91 % of control and 100 % of control | dose: 400.0 mg/kg/injection, schedule: Q04DX003 (ip), vehicle: other 91 % of control and 100 % of control

O=C(O)c1[nH]c(=O)[nH]c(=O)c1F
active: dose: 2.5 mg/kg/injection, schedule: Q01DX010 (ip), vehicle: saline 152 % of control | dose: 10.0 mg/kg/injection, schedule: Q01DX010 (ip), vehicle: saline 166 % of control

CCOC(=O)c1cc(C(=O)OCC)c(=O)oc1OCC
inactive: dose: 25.0 mg/kg/injection, schedule: Q01DX009 (ip), vehicle: saline 118 % of control | [2] 104 % of control | [5] 118 % of control

O=C(O)c1ccc(C(=O)c2ccccc2C(=O)O)cc1
inactive: dose: 100.0 mg/kg/injection, schedule: Q01DX001 (ip), vehicle: Klucel (hydroxypropylcellulose) (HPC) 95 % of control | [11] 91 % of control | [12] 104 % of control | dose: 200.0 mg/kg/injection, schedule: Q01DX001 (ip), vehicle: Klucel (hydroxypropylcellulose) (HPC) 100 % of control | [13] 95 % of control | [14] 104 % of control | dose: 400.0 mg/kg/injection, schedule: Q01DX001 (ip), vehicle: Klucel (hydroxypropylcellulose) (HPC) 95 % of control | [21] 91 % of control | [15] 109 % of control

CCOc1ccc(Br)cc1C=O
inactive: [4] 100 % of control | [6] 90 % of control | [19] 100 % of control | [8] 95 % of control | [20] 100 % of control | [10] 100 % of control

N#Cc1ccccc1-n1c(=O)c2cc3c(=O)n(-c4ccccc4C#N)c(=O)c3cc2c1=O
active: [19] 162 % of control

CCOc1c(Br)cc(Br)cc1C=O
inactive: [4] 104 % of control | [6] 109 % of control | [19] 113 % of control | [8] 109 % of control | [20] 100 % of control | [10] 95 % of control

CS(=O)(=O)OCCN(CCOS(C)(=O)=O)c1ccc(C=O)cc1
active: dose: 3.0 mg/kg/injection, schedule: Q04DX003 (ip), vehicle: saline with Tween-80 227 % of control | dose: 3.13 mg/kg/injection, schedule: Q01DX009 (ip), vehicle: saline with Tween-80 210 % of control | dose: 5.0 mg/kg/injection, schedule: Q04DX003 (ip), vehicle: saline with Tween-80 177 % of control | [16] 229 % of control | dose: 8.0 mg/kg/injection, schedule: Q01DX009 (ip), vehicle: saline with Tween-80 237 % of control | dose: 8.0 mg/kg/injection, schedule: Q04DX003 (ip), vehicle: saline with Tween-80 181 % of control | dose: 8.25 mg/kg/injection, schedule: Q04DX003 (ip), vehicle: saline with Tween-80 195 % of control | dose: 12.0 mg/kg/injection, schedule: Q01DX009 (ip), vehicle: saline with Tween-80 212 % of control | [17] 231 % of control and 176 % of control | dose: 12.5 mg/kg/injection, schedule: Q04DX003 (ip), vehicle: saline with Tween-80 212 % of control | dose: 18.0 mg/kg/injection, schedule: Q01DX009 (ip), vehicle: saline with Tween-80 250 % of control | dose: 18.75 mg/kg/injection, schedule: Q04DX003 (ip), vehicle: saline with Tween-80 250 % of control
inactive: [18] 86 % of control

C[N+](C)(Cn1nc(Cl)c2cc([N+](=O)[O-])ccc21)Cn1nc(Cl)c2cc([N+](=O)[O-])ccc21
inactive: [6] 115 % of control
active: [8] 153 % of control

CC(C)=CCOc1ccc(C(=O)/C=C/c2ccc(O)cc2)c(O)c1
inactive: dose: 1.25 mg/kg/injection, schedule: Q01DX009 (ip), vehicle: Klucel (hydroxypropylcellulose) (HPC) 93 % of control | dose: 2.5 mg/kg/injection, schedule: Q01DX009 (ip), vehicle: Klucel (hydroxypropylcellulose) (HPC) 115 % of control | dose: 5.0 mg/kg/injection, schedule: Q01DX009 (ip), vehicle: Klucel (hydroxypropylcellulose) (HPC) 109 % of control | dose: 10.0 mg/kg/injection, schedule: Q01DX009 (ip), vehicle: Klucel (hydroxypropylcellulose) (HPC) 107 % of control | dose: 20.0 mg/kg/injection, schedule: Q01DX009 (ip), vehicle: Klucel (hydroxypropylcellulose) (HPC) 97 % of control | dose: 40.0 mg/kg/injection, schedule: Q01DX009 (ip), vehicle: Klucel (hydroxypropylcellulose) (HPC) 98 % of control

CCCCC(=O)c1cc(OC)cc(OC)c1
inactive: [13] 100 % of control | [21] 91 % of control

COc1ccc(NC2=NCCS2)cc1
inactive: [3] 109 % of control | [4] 104 % of control

CCCCCCC(CCCCCC)(CCCCCC)B1OCCO1
inactive: [4] 100 % of control | [6] 100 % of control | [19] 104 % of control | [8] 109 % of control | [20] 123 % of control | [10] 104 % of control

COc1c(O)c(OC)c(C(=O)/C=C/c2ccccc2)c(O)c1OC
inactive: [18] 107 % of control | [3] 114 % of control | [4] 99 % of control

OCCOCCOCCN1CCN(CCCN2c3ccccc3Sc3ccc(C(F)(F)F)cc32)CC1
inactive: dose: 0.79 mg/kg/injection, schedule: Q01DX009 (ip), vehicle: saline 91 % of control | [1] 112 % of control
